From PubChem BioAssay AID248 (DTP/NCI, 2004)
Values joined by “and” are separate entries in the source; they are usually repeats but may differ in a detail not shown here. Equal entries are not always repeated. Toxic doses and inconclusive results are not listed. No stated cut-off is given here; in the data, active means T/C of 150% or more; inactive means T/C below 125%.

Tested on: L1210 leukemia ip in BDF1 mice, survival T/C
Assay: NCI In Vivo Anticancer Drug Screen. Data for tumor model L1210 Leukemia (intraperitoneal) in B6D2F1 (BDF1) mice
Conditions: endpoint: mean survival time, higher = longer survival
In short: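 Read-out is survival time, reported as the treated-group measurement over the vehicle-control measurement.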

[1] = dose: 100.0 mg/kg/injection, schedule: Q01DX001 (ip), vehicle: Klucel (hydroxypropylcellulose) (HPC)
[2] = dose: 200.0 mg/kg/injection, schedule: Q01DX001 (ip), vehicle: Klucel (hydroxypropylcellulose) (HPC)
[3] = dose: 400.0 mg/kg/injection, schedule: Q01DX001 (ip), vehicle: Klucel (hydroxypropylcellulose) (HPC)
[4] = dose: 100.0 mg/kg/injection, schedule: Q01DX001 (ip), vehicle: saline
[5] = dose: 100.0 mg/kg/injection, schedule: Q01DX009 (ip), vehicle: saline
[6] = dose: 100.0 mg/kg/injection, schedule: Q04DX003 (ip), vehicle: saline
[7] = dose: 200.0 mg/kg/injection, schedule: Q01DX001 (ip), vehicle: saline
[8] = dose: 200.0 mg/kg/injection, schedule: Q01DX009 (ip), vehicle: saline
[9] = dose: 200.0 mg/kg/injection, schedule: Q04DX003 (ip), vehicle: saline
[10] = dose: 400.0 mg/kg/injection, schedule: Q01DX001 (ip), vehicle: saline
[11] = dose: 400.0 mg/kg/injection, schedule: Q01DX009 (ip), vehicle: saline
[12] = dose: 100.0 mg/kg/injection, schedule: Q01DX009 (ip), vehicle: Klucel (hydroxypropylcellulose) (HPC)
[13] = dose: 200.0 mg/kg/injection, schedule: Q01DX009 (ip), vehicle: Klucel (hydroxypropylcellulose) (HPC)
[14] = dose: 400.0 mg/kg/injection, schedule: Q01DX009 (ip), vehicle: Klucel (hydroxypropylcellulose) (HPC)
[15] = dose: 100.0 mg/kg/injection, schedule: Q01DX009 (ip), vehicle: saline with Tween-80
[16] = dose: 200.0 mg/kg/injection, schedule: Q01DX009 (ip), vehicle: saline with Tween-80
[17] = dose: 400.0 mg/kg/injection, schedule: Q01DX009 (ip), vehicle: saline with Tween-80
[18] = dose: 400.0 mg/kg/injection, schedule: Q04DX003 (ip), vehicle: saline

Measured: T/C

O=[N+]([O-])c1ccc(/C=C/c2ccc(S(=O)(=O)F)cc2Cl)c(Cl)c1
inactive: [1] 97 % of control | [2] 87 % of control | [3] 93 % of control

C=CCc1cc(CNCC(C)O)c(O)c(OC)c1 (stereo not given)
inactive: dose: 50.0 mg/kg/injection, schedule: Q04DX003 (ip), vehicle: Klucel (hydroxypropylcellulose) (HPC) 95 % of control | dose: 100.0 mg/kg/injection, schedule: Q04DX003 (ip), vehicle: Klucel (hydroxypropylcellulose) (HPC) 93 % of control

[Cl][Al]([Cl])[Cl]
inactive: dose: 6.25 mg/kg/injection, schedule: Q01DX009 (ip), vehicle: saline 102 % of control | dose: 12.5 mg/kg/injection, schedule: Q01DX009 (ip), vehicle: saline 93 % of control | dose: 50.0 mg/kg/injection, schedule: Q04DX003 (ip), vehicle: saline 91 % of control | [4] 97 % of control and 89 % of control and 96 % of control | [5] 87 % of control | [6] 100 % of control and 87 % of control | [7] 98 % of control and 94 % of control | [8] 96 % of control | [9] 96 % of control and 101 % of control and 90 % of control | [10] 100 % of control and 114 % of control | [11] 91 % of control

CCOC(=O)c1cnc(SC)nc1Nc1ccc(C)cc1C
inactive: [12] 96 % of control | [13] 101 % of control | [14] 109 % of control

O=C(/C=C/c1ccc2c(c1)OCO2)c1ccc([N+](=O)[O-])cc1
inactive: dose: 100.0 mg/kg/injection, schedule: Q04DX003 (ip), vehicle: alcohol 93 % of control | dose: 200.0 mg/kg/injection, schedule: Q04DX003 (ip), vehicle: alcohol 90 % of control | dose: 400.0 mg/kg/injection, schedule: Q04DX003 (ip), vehicle: alcohol 93 % of control

c1ccc(-c2cc3c(-c4ccccc4)c4ccccc4c(-c4ccccc4)c3cc2-c2ccccc2)cc1
inactive: dose: 50.0 mg/kg/injection, schedule: Q01DX009 (ip), vehicle: saline with Tween-80 96 % of control | [15] 96 % of control | [16] 108 % of control

Cc1ccc(S(=O)(=O)NCCCOS(=O)(=O)c2ccc(C)cc2)cc1
inactive: [12] 104 % of control | dose: 100.0 mg/kg/injection, schedule: Q04DX003 (ip), vehicle: acetone 97 % of control | [13] 93 % of control | dose: 200.0 mg/kg/injection, schedule: Q04DX003 (ip), vehicle: acetone 95 % of control | [14] 93 % of control | dose: 400.0 mg/kg/injection, schedule: Q04DX003 (ip), vehicle: acetone 94 % of control

CC(=O)OC1CCC2(C)C(CCC3C2CCC2(C)C(C(C)=O)CCC32)C1 (stereo not given)
inactive: dose: 100.0 mg/kg/injection, schedule: Q01DX009 (sc), vehicle: steriod suspending solution 95 % of control | dose: 200.0 mg/kg/injection, schedule: Q01DX009 (sc), vehicle: steriod suspending solution 95 % of control | dose: 400.0 mg/kg/injection, schedule: Q01DX009 (sc), vehicle: steriod suspending solution 90 % of control

C=C1N(S(=O)(=O)c2ccc(C)cc2)C(=O)OC12CCCCC2
inactive: [15] 95 % of control | [16] 103 % of control | [17] 105 % of control

NC(CSSCC(NC(=O)CNC(=O)OCc1ccccc1)C(=O)O)C(=O)O (stereo not given)
inactive: [1] 93 % of control | [2] 90 % of control | [3] 98 % of control

CCCCN(C)N=Nc1c[nH]c(=O)[nH]c1=O
inactive: dose: 75.0 mg/kg/injection, schedule: Q01DX001 (ip), vehicle: other 95 % of control

CN(C)C=NCCOCc1ccccc1
inactive: [6] 98 % of control | [9] 93 % of control

C=C(C)CON=C(c1ccccc1)c1ccccc1
inactive: [6] 92 % of control | [9] 96 % of control | [18] 97 % of control

ClC1C(Cl)C(Cl)C(Cl)C(Cl)C1Cl (stereo not given)
inactive: dose: 50.0 mg/kg/injection, schedule: Q01DX009 (ip), vehicle: saline 103 % of control | [5] 103 % of control | [8] 108 % of control

CCCCCCCCCCC(O)CCCCCCCCCC
inactive: [15] 96 % of control | [16] 105 % of control | [17] 93 % of control

N=C(N)SCc1c2ccccc2cc2ccccc12
inactive: dose: 88.0 mg/kg/injection, schedule: Q01DX009 (ip), vehicle: saline sonified 102 % of control | [5] 102 % of control | [6] 104 % of control | dose: 132.0 mg/kg/injection, schedule: Q01DX009 (ip), vehicle: saline sonified 105 % of control | dose: 200.0 mg/kg/injection, schedule: Q01DX009 (ip), vehicle: saline sonified 114 % of control | [9] 102 % of control | [18] 112 % of control

CC(/C=C(\C)N1CCCC1)=[N+]1CCCC1
inactive: dose: 0.78 mg/kg/injection, schedule: Q01DX009 (ip), vehicle: saline 101 % of control | dose: 1.56 mg/kg/injection, schedule: Q01DX009 (ip), vehicle: saline 101 % of control | dose: 1.56 mg/kg/injection, schedule: Q04DX003 (ip), vehicle: saline 94 % of control and 108 % of control | dose: 3.12 mg/kg/injection, schedule: Q04DX003 (ip), vehicle: saline 112 % of control and 89 % of control | dose: 6.25 mg/kg/injection, schedule: Q04DX003 (ip), vehicle: saline 110 % of control

COP(=S)(OC)N(C)C
inactive: dose: 75.0 mg/kg/injection, schedule: Q01DX001 (ip), vehicle: saline 101 % of control | dose: 150.0 mg/kg/injection, schedule: Q01DX001 (ip), vehicle: saline 96 % of control

OC(CCl)COc1ccccc1 (stereo not given)
inactive: dose: 100.0 mg/kg/injection, schedule: Q01DX009 (sc), vehicle: olive oil, sesame oil, peanut oil 91 % of control | dose: 100.0 mg/kg/injection, schedule: Q04DX002 (sc), vehicle: olive oil, sesame oil, peanut oil 101 % of control | dose: 200.0 mg/kg/injection, schedule: Q01DX009 (sc), vehicle: olive oil, sesame oil, peanut oil 105 % of control | dose: 200.0 mg/kg/injection, schedule: Q04DX002 (sc), vehicle: olive oil, sesame oil, peanut oil 104 % of control | dose: 400.0 mg/kg/injection, schedule: Q01DX009 (sc), vehicle: olive oil, sesame oil, peanut oil 94 % of control | dose: 400.0 mg/kg/injection, schedule: Q04DX002 (sc), vehicle: olive oil, sesame oil, peanut oil 96 % of control

C/C=C\CCCCCCC
inactive: dose: 50.0 mg/kg/injection, schedule: Q01DX001 (ip), vehicle: carboxymethylcellulose (CMC) 90 % of control | dose: 100.0 mg/kg/injection, schedule: Q01DX001 (ip), vehicle: carboxymethylcellulose (CMC) 90 % of control | dose: 200.0 mg/kg/injection, schedule: Q01DX001 (ip), vehicle: carboxymethylcellulose (CMC) 95 % of control | dose: 400.0 mg/kg/injection, schedule: Q01DX001 (ip), vehicle: carboxymethylcellulose (CMC) 90 % of control

O=C1C=C(O)c2ccccc2C1=O
inactive: dose: 10.0 mg/kg/injection, schedule: Q01DX Z (ip), vehicle: other 98 % of control | dose: 12.5 mg/kg/injection, schedule: Q04DX003 (ip), vehicle: saline with Tween-80 98 % of control | dose: 20.0 mg/kg/injection, schedule: Q01DX Z (ip), vehicle: other 88 % of control | dose: 25.0 mg/kg/injection, schedule: Q04DX003 (ip), vehicle: saline with Tween-80 106 % of control | dose: 30.0 mg/kg/injection, schedule: Q01DX Z (ip), vehicle: other 90 % of control | dose: 31.2 mg/kg/injection, schedule: Q01DX Z (ip), vehicle: other 97 % of control | dose: 40.0 mg/kg/injection, schedule: Q01DX Z (ip), vehicle: other 90 % of control | dose: 50.0 mg/kg/injection, schedule: Q04DX003 (ip), vehicle: saline with Tween-80 92 % of control

NC(=O)C(N)=O
inactive: [5] 93 % of control | [6] 106 % of control | [8] 103 % of control | [9] 101 % of control | [11] 101 % of control | [18] 97 % of control

O=c1oc2cccc(O)c2c(O)c1Cc1ccccc1
inactive: [6] 97 % of control | [9] 94 % of control | [18] 94 % of control

CC(C)(CCN)[N+](=O)[O-]
inactive: [4] 96 % of control | [7] 96 % of control | [10] 102 % of control

O=C1C2CC=CCC2C(=O)C2CC=CCC12 (stereo not given)
inactive: [15] 99 % of control | [16] 93 % of control | [17] 90 % of control

CCCCCCc1c(C)nc(N)[nH]c1=O
inactive: [1] 92 % of control | [12] 105 % of control | [2] 89 % of control | [13] 100 % of control | [3] 92 % of control | [14] 97 % of control
